Measurements published in patent US20030125389A1, “Beta-amino acid derivatives useful for the treatment of bacterial infections” (priority 2001, published 2003).

Legend:
[1] = system: a variety of standard laboratory microorganisms; details: cited from earlier work
[2] = system: Escherichia coli ATCC 25922; test: Mouse septicemia model; format: in vivo; details: ATCC25922, ICR male mice, E. coli ATCC 25922 intraperitoneally, compound PO or IV at 1 and 5 hours after inoculation, mortality recorded for 7 days
Procedure: Escherichia coli ATCC 25922 was used to test the efficacy of compounds in a mouse septicemia model using six ICR male mice per group. Mice were inoculated intraperitoneally with 2×10^5 cfu/mouse in 0.5 ml of Brain-Heart Infusion broth supplemented with 5% mucin. The compounds were tested at 40, 20, 10, 5 and 2.5 mg/kg orally (PO) or at 20, 10, 5 and 2.5 mg/kg intravenously (IV) at 1 and 5 hours after bacterial inoculation. Controls included vehicle control (0.9% NaCl, 10 ml/kg) and an antibiotic control with ampicillin. Mortality was recorded for 7 days, and an ED50 was determined by non-linear regression.

[3] = system: Gram negative and Gram positive bacteria; details: against Gram negative and Gram positive bacteria; cited from earlier work

SMILES	ED50 [2]	further results
CN(CC(=O)O)NC(=O)C[C@H](N)CCCN [Deoxynegamycin, D-3,6-diaminiohexanoic acid-2-(carboxymethyl)-2-methylhyrazide]		antimicrobial activity in vitro [1]: broad-spectrum antibacterial and antifungal activity
CNC[C@H](O)C[C@@H](N)CC(=O)NN(C)CC(=O)O [Example 1]	< 40 mg/kg	
CN(CC(=O)O)NC(=O)C[C@H](N)C[C@@H](F)CN [Example 5, {N′-[(3R)-Amino-6-amino-(5R)-fluorohexanoyl]-N-methylhydrazino}acetic acid]	< 40 mg/kg	
CNC[C@H](F)C[C@@H](N)CC(=O)NN(C)CC(=O)O [Example 7, {N′-[(3R)-Amino-(5R)-fluoro-6-methylaminohexanoyl]-N-methylhydrazino}acetic acid]	< 40 mg/kg	
CN(CC(=O)O)NC(=O)C[C@H](N)C[C@@H](O)CN [Negamycin, [2-{(3R, 5R)-3,6-diamino-5-hydroxyhexanoyl}-1-methylhydrazino]acetic acid]		inhibitory activity [3]: strong inhibitory activity
